Results on 51 molecules are retold here after patent US9469645B2, “Compounds and compositions for the treatment of parasitic diseases” (Novartis AG, priority 2009, dated 2016).

One test relates to W2 strain. Kind of test: parasite proliferation assay in infected red blood cells (SYBR Green I), W2 strain. As to conditions: Plasmodium falciparum, Erythrocyte. The test is classed as cell-based. From the text:
Compounds of the invention can be assayed to measure their capacity to inhibit proliferation of parasitemia in infected red blood cells. The proliferation is quantified by the addition of SYBR Green I (INVITROGEN)® dye which has a high affinity for double stranded DNA.

The test system of the next test is 3D7 P. falciparum strain. As to the kind of experiment: parasite proliferation assay in infected red blood cells (SYBR Green I). Type of test: cell-based, Plasmodium falciparum. As to conditions: Plasmodium falciparum, 3D7, Erythrocyte, 3D7 strain; read-out: EC50 3D7 strain. In a few lines:
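P. falciparum 3D7 grown in O+ human erythrocytes to 3–8% parasitemia and exposed to compounds. Proliferation read as the increase in parasite DNA. Detection used SYBR Green I in saponin/triton-X/EDTA lysis buffer, with overnight lysis at room temperature.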

As usually defined, the EC50 is the concentration giving half of the maximal effect. Regarding `CN1Cc2nc(-c3ccc(F)cc3)c(Nc3ccc(Cl)c(F)c3)n2C(C)(C)C1=O` [Compound 615], the EC50 in the test with W2 strain is 5610 nM; with 3D7 P. falciparum strain it was 6410 nM.

For `Cc1cc(Nc2c(-c3ccc(F)cc3)nc3n2C(C)(C)C(=O)N(C)C3)ccc1Cl` [Compound 616], the concentration giving a half-maximal response (EC50) amounted to 4560 nM with W2 strain and 5720 nM with 3D7 P. falciparum strain.

`Cc1cc(Nc2c(-c3ccc(F)cc3)nc3n2C(C)(C)C(=O)N(C)C3)ccc1F` [Compound 617]: the concentration for a half-maximal effect (EC50) with W2 strain came to 6880 nM; in the test on 3D7 P. falciparum strain, 6330 nM.

As for `CC1(C)C(=O)NCc2nc(-c3ccc(F)cc3)c(Nc3ccc(Cl)c(F)c3)n21` [Compound 618], the EC50 with W2 strain was determined as 2890 nM; with 3D7 P. falciparum strain, 2130 nM.

`Cc1cc(Nc2c(-c3ccc(F)cc3)nc3n2C(C)(C)C(=O)NC3)ccc1Cl` [Compound 619]: the concentration for a half-maximal effect (EC50) amounted to 713 nM in the test on W2 strain and 570 nM in the test on 3D7 P. falciparum strain.

Take `CC1(C)CN(C(=O)CN)Cc2nc(-c3cccc(F)c3)c(Nc3ccc(Cl)cc3)n21` [Compound 620]: the figures for the concentration giving a half-maximal response (EC50) with W2 strain and with 3D7 P. falciparum strain were 41 nM and 40 nM, respectively.

For the molecule `CC1(C)CN(C(=O)CN)Cc2nc(-c3cccc(F)c3)c(Nc3ccc(F)cc3)n21` [Compound 621], the EC50 in the test with W2 strain is 45 nM; in the test on 3D7 P. falciparum strain, 40 nM.

Take `CC1(C)CN(C(=O)CN)Cc2nc(-c3cccc(F)c3)c(Nc3ccc(F)c(F)c3)n21` [Compound 622]: the EC50 with W2 strain worked out at 121 nM; with 3D7 P. falciparum strain, 100 nM.

In the case of `CC1(C)CN(C(=O)CN)Cc2nc(-c3cccc(F)c3)c(Nc3ccc(Cl)c(F)c3)n21` [Compound 623], the EC50 in the test with W2 strain turned out to be 32 nM; with 3D7 P. falciparum strain it was 30 nM.

On to `CC1(C)CN(C(=O)CN)Cc2nc(-c3cccc(F)c3)c(Nc3ccc(F)c(Cl)c3)n21` [Compound 624], for which the values for the concentration for a half-maximal effect (EC50) with W2 strain and in the test with 3D7 P. falciparum strain were 167 nM and 100 nM, respectively.

As for `Cc1cc(Nc2c(-c3cccc(F)c3)nc3n2C(C)(C)CN(C(=O)CN)C3)ccc1F` [Compound 625], the EC50 in the test with W2 strain was 194 nM; in the test with 3D7 P. falciparum strain, 170 nM.

As for `Cc1cc(Nc2c(-c3cccc(F)c3)nc3n2C(C)(C)CN(C(=O)CN)C3)ccc1Cl` [Compound 626], the EC50 with W2 strain amounted to 17 nM; with 3D7 P. falciparum strain, 20 nM.

In the case of `CN1CCn2c(nc(-c3ccc(F)cc3)c2Nc2ccc(F)c(Cl)c2)C1(C)C` [Compound 627], the results for the 50% effective concentration (EC50) with W2 strain and with 3D7 P. falciparum strain were 194 nM and 170 nM, respectively.

As to `Cc1cc(Nc2c(-c3ccc(F)cc3)nc3n2CCN(C(=O)C(C)(C)N)C3)ccc1F` [Compound 628], the 50% effective concentration (EC50) in the test with W2 strain was 40 nM; in the test with 3D7 P. falciparum strain, 33 nM.

Consider `Cc1cc(Nc2c(-c3ccc(F)cc3)nc3n2CCN(C(=O)C(C)(C)N)C3)ccc1Cl` [Compound 629], for which the EC50 came to 23 nM with W2 strain and 17 nM with 3D7 P. falciparum strain.

In the case of `Cc1ccc(Nc2c(-c3ccc(F)cc3)nc3n2CCN(C(=O)C(C)(C)N)C3)cc1C#N` [Compound 630], the EC50 with W2 strain was 85 nM; in the test with 3D7 P. falciparum strain, 35 nM.

For the molecule `Cc1ccc(Nc2c(-c3ccc(F)cc3)nc3n2CCN(C(=O)C(C)(C)N)C3)cc1F` [Compound 631], the EC50 is 62 nM in the test with W2 strain and 49 nM in the test on 3D7 P. falciparum strain.

Turning to `Cc1ccc(Nc2c(-c3ccc(F)cc3)nc3n2CCN(C(=O)C(C)(C)N)C3)cc1Cl` [Compound 632], the EC50 is 16 nM in the test on W2 strain and 15 nM in the test on 3D7 P. falciparum strain.

For the molecule `CC(C)(N)C(=O)N1CCn2c(nc(-c3ccc(F)cc3)c2Nc2ccc(C(F)(F)F)c(Cl)c2)C1` [Compound 633], the EC50 with W2 strain amounted to 331 nM; in the test with 3D7 P. falciparum strain, 528 nM.

Take `CC(C)(N)C(=O)N1CCn2c(nc(-c3ccc(F)cc3)c2Nc2ccc(F)c(C(F)(F)F)c2)C1` [Compound 634]: the figures for the concentration giving a half-maximal response (EC50) with W2 strain and with 3D7 P. falciparum strain were 447 nM and 467 nM, respectively.

For the molecule `CC(C)(N)C(=O)N1CCn2c(nc(-c3ccc(F)cc3)c2Nc2ccc(C#N)c(C(F)(F)F)c2)C1` [Compound 635], the EC50 in the test on W2 strain is 1760 nM; in the test with 3D7 P. falciparum strain, 940 nM.

Regarding `CC(C)(N)C(=O)N1CCn2c(nc(-c3ccc(F)cc3)c2Nc2ccc(F)c(C#N)c2)C1` [Compound 636], the EC50 was found to be 183 nM with W2 strain and 210 nM with 3D7 P. falciparum strain.

Take `Cc1ccc(Nc2c(-c3ccc(F)cc3)nc3n2CCN(C(=O)C(C)(C)N)C3)cc1C` [Compound 637]: the EC50 in the test with W2 strain was 26 nM; with 3D7 P. falciparum strain it was 27 nM.

For the molecule `Cc1cccc(Nc2c(-c3ccc(F)cc3)nc3n2CCN(C(=O)C(C)(C)N)C3)c1` [Compound 638], the 50% effective concentration (EC50) in the test with W2 strain was 68 nM; with 3D7 P. falciparum strain, 65 nM.

With `CC(C)(N)C(=O)N1CCn2c(nc(-c3ccc(F)cc3)c2Nc2cccc(Cl)c2)C1` [Compound 639], the figures for the EC50 in the test on W2 strain and in the test with 3D7 P. falciparum strain were 93 nM and 82 nM, respectively.

For the molecule `CC(C)(N)C(=O)N1CCn2c(nc(-c3ccc(F)cc3)c2Nc2cccc(OC(F)(F)F)c2)C1` [Compound 640], the concentration giving a half-maximal response (EC50) in the test with W2 strain was determined as 4510 nM; in the test with 3D7 P. falciparum strain, 3950 nM.

Turning to `CCc1ccc(Nc2c(-c3ccc(F)cc3)nc3n2CCN(C(=O)C(C)(C)N)C3)cc1` [Compound 641], the EC50 in the test with W2 strain was 1280 nM; in the test with 3D7 P. falciparum strain, 799 nM.

Turning to `CC(C)(N)C(=O)N1CCn2c(nc(-c3ccc(F)cc3)c2Nc2ccc(OC(F)F)cc2)C1` [Compound 642], the EC50 came out at 2500 nM in the test with W2 strain and 2010 nM with 3D7 P. falciparum strain.

`CC(C)(N)C(=O)N1CCn2c(nc(-c3ccc(F)cc3)c2Nc2ccc(OC(F)(F)F)cc2)C1` [Compound 643]: the half-maximal effective concentration (EC50) was 2170 nM in the test on W2 strain and 2800 nM in the test on 3D7 P. falciparum strain.

As to `CC(C)(N)C(=O)N1CCn2c(nc(-c3ccc(F)cc3)c2Nc2cc(Cl)cc(Cl)c2)C1` [Compound 644], the EC50 with W2 strain stood at 490 nM; with 3D7 P. falciparum strain, 310 nM.

With `CC1(C)N=C2c3nc(-c4ccc(F)cc4)c(Nc4ccc(F)c(F)c4)n3CCN2C1=O` [Compound 645, 8-(3,4-difluorophenylamino)-9-(4-fluorophenyl)-2,2-dimethyl-5,6-dihydrodiimidazo[1,2-a:2′,1′-c]pyrazin-3 (2H)-one], the results for the concentration for a half-maximal effect (EC50) in the test on W2 strain and with 3D7 P. falciparum strain were 7600 nM and 5130 nM, respectively.

Regarding `CC1(C)NC2c3nc(-c4ccc(F)cc4)c(Nc4ccc(F)c(F)c4)n3CCN2C1=O` (stereo not drawn) [Compound 646, 8-(3,4-difluorophenylamino)-9-(4-fluorophenyl)-2,2-dimethyl-1,2,5,6-tetrahydrodiimidazo[1,2-a:2′,1′-c]pyrazin-3(10bH)-one], the figures for the EC50 in the test on W2 strain and in the test with 3D7 P. falciparum strain were 6130 nM and 5680 nM, respectively.

In the case of `CC1(C)c2nc(-c3ccc(F)cc3)c(Nc3ccc(-c4ccccc4)cc3)n2CCN1C(=O)CN` [Compound 647], the EC50 in the test with W2 strain stood at 250 nM; with 3D7 P. falciparum strain, 279 nM.

For the molecule `CCc1ccc(Nc2c(-c3ccc(F)cc3)nc3n2CCN(C(=O)CN)C3(C)C)cc1` [Compound 648], the 50% effective concentration (EC50) in the test with W2 strain amounted to 8 nM; in the test with 3D7 P. falciparum strain it was 9 nM.

With `CC1(C)c2nc(-c3ccc(F)cc3)c(Nc3ccc(OC(F)(F)F)cc3)n2CCN1C(=O)CN` [Compound 649], the EC50 in the test on W2 strain stood at 18 nM; with 3D7 P. falciparum strain, 24 nM.

In the case of `CC1(C)c2nc(-c3ccc(F)cc3)c(Nc3cccc(OC(F)(F)F)c3)n2CCN1C(=O)CN` [Compound 650], the values for the EC50 in the test on W2 strain and with 3D7 P. falciparum strain were 9 nM and 12 nM, respectively.

Turning to `CC1(C)c2nc(-c3ccc(F)cc3)c(Nc3cccc(Cl)c3)n2CCN1C(=O)CN` [Compound 651], the figures for the EC50 in the test on W2 strain and with 3D7 P. falciparum strain were 5 nM and 8 nM, respectively.

As for `CC1(C)c2nc(-c3ccc(F)cc3)c(Nc3cccc(C(F)(F)F)c3)n2CCN1C(=O)CN` [Compound 652], the EC50 amounted to 12 nM in the test with W2 strain and 19 nM with 3D7 P. falciparum strain.

`CC1(C)c2nc(-c3ccc(F)cc3)c(Nc3cccc(C#N)c3)n2CCN1C(=O)CN` [Compound 653]: the EC50 in the test on W2 strain is 9 nM; in the test on 3D7 P. falciparum strain, 6 nM.

Regarding `Cc1ccc(Nc2c(-c3ccc(F)cc3)nc3n2CCN(C(=O)CN)C3(C)C)cc1C` [Compound 654], the concentration giving a half-maximal response (EC50) in the test with W2 strain came to 6 nM; with 3D7 P. falciparum strain, 5 nM.

As to `CC1(C)c2nc(-c3ccc(F)cc3)c(Nc3ccc(C#N)c(C(F)(F)F)c3)n2CCN1C(=O)CN` [Compound 655], the concentration for a half-maximal effect (EC50) in the test on W2 strain came to 20 nM; in the test on 3D7 P. falciparum strain, 17 nM.

Turning to `Cc1cc(C)cc(Nc2c(-c3ccc(F)cc3)nc3n2CCN(C(=O)CN)C3(C)C)c1` [Compound 656], the values for the EC50 with W2 strain and in the test with 3D7 P. falciparum strain were 7 nM and 6 nM, respectively.

For `CC1(C)c2nc(-c3ccc(F)cc3)c(Nc3ccc(F)c(C(F)(F)F)c3)n2CCN1C(=O)CN` [Compound 657], the EC50 in the test with W2 strain was 1090 nM; in the test with 3D7 P. falciparum strain, 618 nM.

On to `CC1(C)c2nc(-c3ccc(F)cc3)c(Nc3ccc(C(F)(F)F)c(Cl)c3)n2CCN1C(=O)CN` [Compound 658], for which the concentration giving a half-maximal response (EC50) amounted to 6 nM in the test with W2 strain and 5 nM in the test with 3D7 P. falciparum strain.

`Cc1cc(Nc2c(-c3ccc(F)cc3)nc3n2CCN(C(=O)CN)C3(C)C)ccc1Cl` [Compound 659]: the EC50 in the test on W2 strain amounted to 5280 nM; in the test with 3D7 P. falciparum strain it was 4390 nM.

Turning to `CC1(C)c2nc(-c3ccc(F)cc3)c(NC3CCC(F)(F)CC3)n2CCN1C(=O)CN` [Compound 660], the EC50 is 6 nM in the test on W2 strain and 3 nM with 3D7 P. falciparum strain.

With `CC1(C)c2nc(-c3ccc(F)cc3)c(NC3CCC(c4ccccc4)CC3)n2CCN1C(=O)CN` (stereo not drawn) [Compound 661], the half-maximal effective concentration (EC50) in the test on W2 strain was 520 nM; with 3D7 P. falciparum strain, 339 nM.

`CC1(C)c2nc(-c3ccc(F)cc3)c(NC3CCC(C(F)(F)F)CC3)n2CCN1C(=O)CN` (stereo not drawn) [Compound 662]: the 50% effective concentration (EC50) in the test with W2 strain was 33 nM; with 3D7 P. falciparum strain, 38 nM.

Take `CC(C)(C)C1CCC(Nc2c(-c3ccc(F)cc3)nc3n2CCN(C(=O)CN)C3(C)C)CC1` (stereo not drawn) [Compound 663]: the EC50 with W2 strain was found to be 1660 nM; with 3D7 P. falciparum strain it was 1060 nM.

As for `CC1CCCCC1Nc1c(-c2ccc(F)cc2)nc2n1CCN(C(=O)CN)C2(C)C` (stereo not drawn) [Compound 664], the EC50 with W2 strain worked out at 4080 nM; in the test on 3D7 P. falciparum strain, 3690 nM.

Consider `CC1(C)c2nc(-c3ccc(F)cc3)c(NC3CCCCCC3)n2CCN1C(=O)CN` [Compound 665], for which the concentration for a half-maximal effect (EC50) was determined as 69 nM in the test with W2 strain and 102 nM with 3D7 P. falciparum strain.
